Laboratory results: patent US8940722B2, “Compounds for modulation of orphan nuclear receptor RAR-related orphan receptor-gamma (RORγ, NR1F3) activity and for the treatment of chronic inflammatory and autoimmune disease” (Phenex Pharmaceuticals AG, priority 2010, dated 2015)

What was measured:
[1] = target: T1, RORγ ligand binding domain (LBD) (Homo sapiens, UniProt P51449); test: TR-FRET Activity Assay (RORγ-LBD / coactivator peptide interaction); assay type: biochemical; settings: Table 2; read-out: RORγ activity in the TR-FRET Activity Assay (IC50 FRET), Group
T1 construct: made in house; host or cells: E. coli BL-21 (BL3), vector pDEST15
T1 sequence (P51449 269-508 limits assumed): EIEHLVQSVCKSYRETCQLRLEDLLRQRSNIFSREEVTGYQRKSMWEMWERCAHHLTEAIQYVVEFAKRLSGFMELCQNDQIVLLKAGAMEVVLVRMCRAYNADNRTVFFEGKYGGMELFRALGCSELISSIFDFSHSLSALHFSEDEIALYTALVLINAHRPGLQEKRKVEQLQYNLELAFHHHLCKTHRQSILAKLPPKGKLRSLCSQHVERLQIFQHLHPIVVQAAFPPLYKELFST
From the text: This method measures the ability of putative ligands to modulate the interaction between the purified bacterial expressed RORγ ligand binding domain (LBD) and synthetic N-terminally biotinylated peptides which are derived from nuclear receptor coactivator proteins such as but not limited to SRC1 (NcoA1), SRC2 (NcoA2, TIF2), SRC3 (NcoA3), PGC1α, PGC1β, CBP, GRIP1, TRAP220, RIP140.
The ligand-binding domain (LBD) of RORγ was expressed as fusion protein with GST in […] cells using the vector pDEST15. Cells were lysed by lysozyme-treatment and sonication, and the fusion proteins purified over glutathione sepharose (Pharmacia) according to the manufacturers instructions. For screening of compounds for their influence on the RORγ-peptide interaction, the LANCE technology (Perkin Elmer) was applied. This method relies on the binding dependent energy transfer from a donor to an acceptor fluorophor attached to the binding partner of interest. For ease of handling and reduction of background from compound fluorescence LANCE technology makes use of generic fluorophore labels and time resolved detection assays were done in a final volume of 25 μL in a 384 well plate, in a Tris-based buffer system (20 mM Tris-HCl pH6.8; 60 mM KCl, 1 mM DTT; 5 mM MgCl2; 35 ng/μL BSA), containing 20-60 ng/well recombinantly expressed RORγ-LBD fused to GST, 200-600 nM N-terminally biotinylated peptide, 200 ng/well Streptavidin-xIAPC conjugate (Prozyme) and 6-10 ng/well Eu W1024—antiGST (Perkin Elmer). DMSO content of the samples was kept at 1%.
After generation of the Tris-based buffer system, the potentially RORγ modulating ligands were diluted. […] The LANCE signal was detected by a Perkin Elmer EnVision™ Multilabel Counter. The results were visualized by plotting the ratio between the emitted light at 665 nm and 615 nm. […] Ligands that promote the complex formation induce a concentration-dependent increase in time-resolved fluorescent signal.
To assess the antagonistic potential of the compounds, IC50 values were determined using a Ligand Sensing Assay based on Time-resolved Fluorescence Energy Transfer (TR-FRET) as described above. The normalised TR-FRET assay values, using the following equation: 1000*665 nm measurement value/615 nm measurement value, were transferred to the program GraphPad Prism to generate graphs and dose response curves using the following equation: • Equation: Sigmoidal dose-response (variable slope) Y=Bottom+(Top−Bottom)/(1+10^((Log EC50−X)*HillSlope))
This is identical to the “four parameter logistic equation”. The IC50 values are calculated using this equation.

[2] = tested on: plasma cytokines in C57/bl6 mice; test: In vivo assay for suppression of IL-17 (MOG/CFA/PTX immunisation); parameters: species or system mouse; settings: 2×10 mg/(kg×day) i.p., MOG peptide+CFA+PTX immunised mice
From the text: All animal models that mimic human autoimmune disease suffer from the issue that they are long lasting, require substantial amounts of exploratory drugs and do mostly not allow for monitoring IL-17 production in a simple setup. We therefore developed an in vivo assay based on an immunisation protocol that stems from a typical mouse Experimental Autoimmune Encephalomyelitis (EAE) model. Such EAE models employ the administration of certain autoimmunogenic peptides derived from i.e. Myelin Oligodendrocyte Glycoprotein (MOG) in conjunction with co-administration of a strong immune stimulants such as Complete Freund's Adjuvans (CFA) and a booster for T-cell activation such as Pertussis Toxin (PTX) to induce an autoimmune response. IL-17 producing Th17 cells are elevated under these conditions and about 14-21 days after the immunisation macroscopic signs of CNS inflammation such as impairment of movement become visible.
This immunisation scheme, while disturbing the regular development of macroscopic EAE symptoms in mice, allows for the monitoring of proinflammatory cytokines in plasma, specifically for IL-17, IL-2 and Interferon gamma IFNγ. […]

activated human PBMCs = test: PBMC stimulation and cytokine release assay; assay type: cell-based
Protocol: Cryopreserved human PBMCs were purchased from Cellular Technology Ltd. thawed and counted as outlined in the supplier's protocol using CTL-anti-Aggregate-Wash-Supplement. Cells were washed and plated in CTL's serum free medium to −10^5 cells/well in anti-human CD3 coated 96 well T-cell activation plates (BD; Cat. No: 354725) together with anti-human CD28 antibody (BD; Cat. No: 555725) to a final concentration of 2 μg/mL. Samples were either treated with vehicle (0.1%) or small chemical molecules of the indicated concentrations.
For end point determination of cytokine production the cells were incubated for 72 h at 37° C. and 5% CO2. Supernatants were harvested and stored frozen at −80° C. until further processing. The cells were assayed for viability by incubation for 15 min with fluoresceindiacetate (5 μg/mL in PBS) and subsequent measurement of fluorescein (485 nm/535 nm).
Cytokine concentrations in the supernatants were determined in bead-based multiplex ELISA assays using Procarta Cytokine Assay Kits (Panomics) following the manufacturers instructions. The samples were read in a Luminex100 device and analysed with the IS Luminex 2.3 Software using a 5 parameter non-linear regression curve-fitting model.

IC50 [1] [µM] | SMILES | further results
< 0.5 | O=S(=O)(c1cccc2cccnc12)N1Cc2ccccc2COCC1Cc1ccccc1 (stereo not shown) [1/8] | plasma IFNγ levels (FIG. 1) [2]: increase; plasma IL-17 levels (FIG. 1) [2]: nearly completely reduced
< 0.5 | O=S(=O)(c1cccc2cccnc12)N1Cc2ccccc2COCC1CC1CCCC1 (stereo not shown) [1/44] | effects on Th17-cytokine production in activated human PBMCs (FIG. 2) (activated human PBMCs): selective inhibitory effects
0.5 to 2 | O=S(=O)(c1cccc2cccnc12)N1Cc2ccccc2COC[C@H]1COCC1CCC1 [16/3] | effects on Th17-cytokine production in activated human PBMCs (FIG. 2) (activated human PBMCs): selective inhibitory effects
0.5 to 2 | O=S(=O)(c1cccc2cccnc12)N1Cc2ccccc2COC[C@H]1COCC1CC1 [16/4] | effects on Th17-cytokine production in activated human PBMCs (FIG. 2) (activated human PBMCs): selective inhibitory effects
< 0.5 | COc1ccccc1S(=O)(=O)N1Cc2ccccc2COCC1Cc1ccccc1 (stereo not shown) [Preparative Example 1, 4-Benzyl-5-(2-methoxyphenylsulfonyl)-3,4,5,6-tetrahydro-1H-benzo[f][1,4]-oxazocine] | effects on Th17-cytokine production in activated human PBMCs (FIG. 2) (activated human PBMCs): selective inhibitory effects
< 0.5 | O=S(=O)(c1cccc2cccnc12)N1Cc2ccccc2COC[C@H]1CC1CC1 [Preparative Example 20, (R)-4-(Cyclopropylmethyl)-5-(quinolin-8-ylsulfonyl)-3,4,5,6-tetrahydro-1H-benzo[f][1,4]oxazocine] | 
> 2 | CC(C)(O)C[C@@H]1COCc2ccccc2CN1S(=O)(=O)c1cccc2cccnc12 [Preparative Example 22, (R)-2-Methyl-1-(5-(quinolin-8-ylsulfonyl)-3,4,5,6-tetrahydro-1H-benzo[f][1,4]oxazocin-4-yl)propan-2-ol] | 
> 2 | CN(C)C(=O)C[C@@H]1COCc2ccccc2CN1S(=O)(=O)c1cccc2cccnc12 [Preparative Example 26, (R)—N,N-Dimethyl-2-(5-(quinolin-8-ylsulfonyl)-3,4,5,6-tetrahydro-1H-benzo[f][1,4]oxazocin-4-yl)acetamide] | 
> 2 | Cc1nnc(C[C@@H]2COCc3ccccc3CN2S(=O)(=O)c2cccc3cccnc23)o1 [Preparative Example 27, (R)-4-((5-Methyl-1,3,4-oxadiazol-2-yl)methyl)-5-(quinolin-8-ylsulfonyl)-3,4,5,6-tetrahydro-1H-benzo[f][1,4]oxazocine] | 
> 2 | O=S(=O)(c1ccccc1OC(F)(F)F)N1Cc2nnc(C(F)(F)F)n2CCC[C@H]1Cc1ccccc1 [Preparative Example 31, (S)-8-Benzyl-9-((2-(trifluoromethoxy)phenyl)sulfonyl)-3-(trifluoromethyl)-5,6,7,8,9,10-hexahydro-[1,2,4]triazolo[4,3-a][1,4]diazocine] | 
> 2 | COc1ccccc1S(=O)(=O)N1Cc2ccccc2COCC1Cc1ccc(Br)cc1 (stereo not shown) [compound 3] | 
0.5 to 2 | COc1ccccc1S(=O)(=O)N1Cc2ccccc2OCCC1Cc1ccccc1 (stereo not shown) [compound 4] | 
< 0.5 | O=S(=O)(c1cccc2cccnc12)N1Cc2cccnc2COC[C@H]1Cc1ccccc1 [compound 6] | 
0.5 to 2 | O=S(=O)(c1cccc2cccnc12)N1Cc2ccccc2COC[C@H]1Cc1cccnc1 [compound 7] | 
> 2 | CN1Cc2ccccc2CN(S(=O)(=O)c2cccc3cccnc23)[C@H](Cc2ccccc2)C1=O [compound 9] | 
> 2 | O=S(=O)(c1cc(F)ccc1N1CCOCC1)N1Cc2ccccc2COCC1Cc1ccccc1 (stereo not shown) [compound 12] | 
> 2 | O=S(=O)(c1cccc2cccnc12)N1Cc2cccc(O)c2COCC1Cc1ccccc1 (stereo not shown) [compound 13] | 
> 2 | COc1ccccc1S(=O)(=O)N1Cc2ccccc2CS(=O)(=O)CC1Cc1ccccc1 (stereo not shown) [compound 29] | 
0.5 to 2 | O=S(=O)(c1cccc2cccnc12)N1Cc2ccccc2CCCC1Cc1ccccc1 (stereo not shown) [compound 30] | 
